US6355799B1, “Substituted benzene compounds, process for their preparation, and herbicidal and defoliant compositions containing them” (ISK Americas Incorporated, priority 1997, dated 2002)

Key:
Type in all cases: in vivo
[1] = system: field corn (Zea mays L., var. Dekalb 535, CORN); test: Pre-emerge test, crop safety; conditions: pre-emerge, rated 14 days after application, 0 = no damage, 100 = complete death
In short: (§1)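 Compounds in acetone were track-sprayed at 187 l/ha, 15–1000 g ai/ha, onto sandy loam pots. Pre-emerge seeds were sown one day before spraying, with surface watering afterwards. Post-emerge plants were at the 2–3 leaf stage and sprayed with 0.25% v/v non-ionic surfactant. Injury was rated 0–100 at 14 days.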

[2] = system: upland rice (Oryza sp., var. Tebonnet, RICE); test: Pre-emerge test, crop safety; conditions: pre-emerge, rated 14 days after application, 0 = no damage, 100 = complete death
In short: as §1

[3] = system: redroot pigweed (Amaranthus retroflexus, AMARE); test: Pre-emerge test, greenhouse herbicide activity screening; conditions: pre-emerge, rated 14 days after application, 0 = no damage, 100 = complete death
In short: (§2)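 Plants grown in 10 cm pots of sandy loam mix received acetone-dissolved compounds through a moving flat-fan nozzle. Doses ranged from 15 to 1000 g ai/ha. Pre-emerge pots were seeded one day earlier, post-emerge pots 8–21 days earlier. Fourteen days on, each pot was graded 0–100 for damage.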

[4] = system: velvetleaf (Abutilon theophrasti, ABUTH); test: as above; conditions: pre-emerge, rated 14 days after application, 0 = no damage, 100 = complete death
In short: (§3)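 Fourteen days after spraying, crop and weed injury was graded visually from 0, no effect, to 100, every plant dead. Test substances were dissolved in acetone and applied at 15–1000 g ai/ha with a flat-fan nozzle. Application was either pre-emergence, one day after sowing, or post-emergence at the 2–3 leaf stage.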

[5] = system: large crabgrass (Digitaria sanguinalis, DIGSA); test: as above; conditions: pre-emerge, rated 14 days after application, 0 = no damage, 100 = complete death
In short: as §3

[6] = system: sicklepod (Cassia obtusifolia, CASOB); test: as above; conditions: pre-emerge, rated 14 days after application, 0 = no damage, 100 = complete death
In short: as §3

[7] = system: green foxtail (Setaria viridis, SETVI); test: as above; conditions: pre-emerge, rated 14 days after application, 0 = no damage, 100 = complete death
In short: as §3

[8] = system: johnsongrass (Sorghum halepense, SORHA); test: as above; conditions: pre-emerge, rated 14 days after application, 0 = no damage, 100 = complete death
In short: as §3

[9] = system: lambsquarters (Chenopodium album, CHEAL); test: as above; conditions: pre-emerge, rated 14 days after application, 0 = no damage, 100 = complete death
In short: as §3

[10] = system: ivyleaf morningglory (Ipomoea hederacea, IPOHE); test: as above; conditions: pre-emerge, rated 14 days after application, 0 = no damage, 100 = complete death
In short: as §3

[11] = system: barnyardgrass (Echinochloa crus-galli, ECHCG); test: as above; conditions: pre-emerge, rated 14 days after application, 0 = no damage, 100 = complete death
In short: as §3

[12] = system: velvetleaf (Abutilon theophrasti, ABUTH); test: Post-emerge test, greenhouse herbicide activity screening; conditions: phytotoxicity rating 0-100 (0 no damage, 100 complete death), 14 days after application
In short: as §2

[13] = system: large crabgrass (Digitaria sanguinalis, DIGSA); test: as above; conditions: phytotoxicity rating 0-100 (0 no damage, 100 complete death), 14 days after application
In short: as §2

[14] = system: sicklepod (Cassia obtusifolia, CASOB); test: as above; conditions: phytotoxicity rating 0-100 (0 no damage, 100 complete death), 14 days after application
In short: as §2

[15] = system: green foxtail (Setaria viridis, SETVI); test: as above; conditions: phytotoxicity rating 0-100 (0 no damage, 100 complete death), 14 days after application
In short: as §2

[16] = system: johnsongrass (Sorghum halepense, SORHA); test: as above; conditions: phytotoxicity rating 0-100 (0 no damage, 100 complete death), 14 days after application
In short: as §2

[17] = system: lambsquarters (Chenopodium album, CHEAL); test: as above; conditions: phytotoxicity rating 0-100 (0 no damage, 100 complete death), 14 days after application
In short: as §2

[18] = system: common ragweed (Ambrosia artemisizfolia L., AMBEL); test: as above; conditions: phytotoxicity rating 0-100 (0 no damage, 100 complete death), 14 days after application
In short: as §2

[19] = system: redroot pigweed (Amaranthus retroflexus, AMARE); test: as above; conditions: phytotoxicity rating 0-100 (0 no damage, 100 complete death), 14 days after application
In short: as §2

[20] = system: ivyleaf morningglory (Ipomoea hederacea, IPOHE); test: as above; conditions: phytotoxicity rating 0-100 (0 no damage, 100 complete death), 14 days after application
In short: as §2

[21] = system: barnyardgrass (Echinochloa crus-galli, ECHCG); test: as above; conditions: phytotoxicity rating 0-100 (0 no damage, 100 complete death), 14 days after application
In short: as §2

[22] = system: field corn (Zea mays L., var. Dekalb 535, CORN); test: Post-emerge test, crop safety; conditions: phytotoxicity rating 0-100 (0 no damage, 100 complete death), 14 days after application
In short: as §3

[23] = system: upland rice (Oryza sp., var. Tebonnet, RICE); test: Post-emerge test, crop safety; conditions: phytotoxicity rating 0-100 (0 no damage, 100 complete death), 14 days after application
In short: as §3

SMILES: COc1c(Cl)cc(F)c(-n2c(=O)cc(C(F)(F)F)n(C)c2=O)c1N=C(Cl)C(Cl)(Cl)Cl [Compound 1-30]
- Pre-emerge crop damage CORN (phytotoxicity rating, scale 0-100) ([1]; 63 g ai/ha): 0
- Pre-emerge crop damage CORN (phytotoxicity rating, scale 0-100) ([1]; 250 g ai/ha): 10
- Pre-emerge crop damage RICE (phytotoxicity rating, scale 0-100) ([2]; 63 g ai/ha): 10
- Pre-emerge crop damage RICE (phytotoxicity rating, scale 0-100) ([2]; 250 g ai/ha): 30
- Pre-emerge Herbicidal Activity AMARE (phytotoxicity rating, scale 0-100) ([3]; 63 g ai/ha): 0
- Pre-emerge Herbicidal Activity AMARE (phytotoxicity rating, scale 0-100) ([3]; 250 g ai/ha): 60
- Pre-emerge Herbicidal Activity ABUTH (phytotoxicity rating, scale 0-100) ([4]; 63 g ai/ha): 50
- Pre-emerge Herbicidal Activity ABUTH (phytotoxicity rating, scale 0-100) ([4]; 250 g ai/ha): 100
- Pre-emerge Herbicidal Activity DIGSA (phytotoxicity rating, scale 0-100) ([5]; 63 g ai/ha): 0
- Pre-emerge Herbicidal Activity DIGSA (phytotoxicity rating, scale 0-100) ([5]; 250 g ai/ha): 90
- Pre-emerge Herbicidal Activity CASOB (phytotoxicity rating, scale 0-100) ([6]; 63 g ai/ha): 0
- Pre-emerge Herbicidal Activity CASOB (phytotoxicity rating, scale 0-100) ([6]; 250 g ai/ha): 70
- Pre-emerge Herbicidal Activity SETVI (phytotoxicity rating, scale 0-100) ([7]; 63 g ai/ha): 10
- Pre-emerge Herbicidal Activity SETVI (phytotoxicity rating, scale 0-100) ([7]; 250 g ai/ha): 100
- Pre-emerge Herbicidal Activity SORHA (phytotoxicity rating, scale 0-100) ([8]; 63 g ai/ha): 0
- Pre-emerge Herbicidal Activity SORHA (phytotoxicity rating, scale 0-100) ([8]; 250 g ai/ha): 10
- Pre-emerge Herbicidal Activity CHEAL (phytotoxicity rating, scale 0-100) ([9]; 63 g ai/ha): 85
- Pre-emerge Herbicidal Activity CHEAL (phytotoxicity rating, scale 0-100) ([9]; 250 g ai/ha): 100
- Pre-emerge Herbicidal Activity IPOHE (phytotoxicity rating, scale 0-100) ([10]; 63 g ai/ha): 0
- Pre-emerge Herbicidal Activity IPOHE (phytotoxicity rating, scale 0-100) ([10]; 250 g ai/ha): 70
- Pre-emerge Herbicidal Activity ECHCG (phytotoxicity rating, scale 0-100) ([11]; 63 g ai/ha): 0
- Pre-emerge Herbicidal Activity ECHCG (phytotoxicity rating, scale 0-100) ([11]; 250 g ai/ha): 0
- Post-emerge Herbicidal Activity ABUTH ([12]; 63 g ai/ha): 30
- Post-emerge Herbicidal Activity ABUTH ([12]; 250 g ai/ha): 100
- Post-emerge Herbicidal Activity DIGSA ([13]; 63 g ai/ha): 0
- Post-emerge Herbicidal Activity DIGSA ([13]; 250 g ai/ha): 0
- Post-emerge Herbicidal Activity CASOB ([14]; 63 g ai/ha): 0
- Post-emerge Herbicidal Activity CASOB ([14]; 250 g ai/ha): 30
- Post-emerge Herbicidal Activity SETVI ([15]; 63 g ai/ha): 0
- Post-emerge Herbicidal Activity SETVI ([15]; 250 g ai/ha): 0
- Post-emerge Herbicidal Activity SORHA ([16]; 63 g ai/ha): 0
- Post-emerge Herbicidal Activity SORHA ([16]; 250 g ai/ha): 0
- Post-emerge Herbicidal Activity CHEAL ([17]; 63 g ai/ha): 0
- Post-emerge Herbicidal Activity CHEAL ([17]; 250 g ai/ha): 60
- Post-emerge Herbicidal Activity AMBEL ([18]; 63 g ai/ha): 0
- Post-emerge Herbicidal Activity AMBEL ([18]; 250 g ai/ha): 70
- Post-emerge Herbicidal Activity AMARE ([19]; 63 g ai/ha): 10
- Post-emerge Herbicidal Activity AMARE ([19]; 250 g ai/ha): 30
- Post-emerge Herbicidal Activity IPOHE ([20]; 63 g ai/ha): 20
- Post-emerge Herbicidal Activity IPOHE ([20]; 250 g ai/ha): 100
- Post-emerge Herbicidal Activity ECHCG ([21]; 63 g ai/ha): 0
- Post-emerge Herbicidal Activity ECHCG ([21]; 250 g ai/ha): 0
- Post-emerge Herbicidal Activity CORN (crop damage) ([22]; 63 g ai/ha): 0
- Post-emerge Herbicidal Activity CORN (crop damage) ([22]; 250 g ai/ha): 10
- Post-emerge Herbicidal Activity RICE (crop damage) ([23]; 63 g ai/ha): 0
- Post-emerge Herbicidal Activity RICE (crop damage) ([23]; 250 g ai/ha): 20
